# Target: T1, Acetaldehyd-Dehydrogenase PS-DmpF (Pseudomonas sp., UniProt Q52060)
# T1 construct: made in house; host or cells: E. coli BL21 (DE3), vector pET-21a(+)
# T1 sequence (Q52060 1-312): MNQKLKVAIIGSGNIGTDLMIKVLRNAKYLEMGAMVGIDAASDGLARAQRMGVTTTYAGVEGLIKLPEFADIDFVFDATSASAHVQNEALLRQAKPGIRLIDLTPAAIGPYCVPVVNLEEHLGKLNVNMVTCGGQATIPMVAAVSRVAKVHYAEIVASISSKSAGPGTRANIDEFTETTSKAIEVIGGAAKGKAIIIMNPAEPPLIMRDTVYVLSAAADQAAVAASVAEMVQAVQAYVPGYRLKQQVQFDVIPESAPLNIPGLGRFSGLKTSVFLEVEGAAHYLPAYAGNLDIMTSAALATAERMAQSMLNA
# Assay: photometric test of inhibition of PS-DmpF by Crotonyl-CoA in mixtures with Butyryl-CoA
# Assay type: biochemical
# Details: Butyryl-CoA and Crotonyl-CoA mixed in different ratios, Figur 4
# Text: Im Rahmen der Photometertests wurde festgestellt, dass die Acetaldehyd-Dehydrogenase DmpF aus Pseudomonas sp. keine Aktivität gegenüber Crotonyl-CoA zeigte. Daher wurde untersucht, ob Crotonyl-CoA kein Substrat für dieses Enzym darstellt oder eine inhibitorische Wirkung auf das Enzym aufweist. Dazu wurden Butyryl-CoA, welches von der Acetaldehyd-Dehydrogenase umgesetzt wird, und Crotonyl-CoA in unterschiedlichen Verhältnissen gemischt und die Aktivität der PS-DmpF gegen diese Substratmischungen untersucht (Figur 4). Die in Figur 4 zusammengefassten Ergebnisse zeigen, dass die Aktivität der PS-DmpF abnahm, je mehr Crotonyl-CoA im Ansatz enthalten ist. Dies bedeutet, dass Crotonyl-CoA inhibierend auf die Acetaldehyd-Dehydrogenase wirkt.
compound,measurement,value
C/C=C/C(=O)SCCNC(=O)CCNC(=O)[C@H](O)C(C)(C)COP(=O)(O)OP(=O)(O)OC[C@H]1O[C@@H](n2cnc3c(N)ncnc32)[C@H](O)[C@@H]1OP(=O)(O)O [Crotonyl-CoA],inhibitorische Wirkung auf das Enzym,inhibierend

# Reference: patent EP3026118A1, “Enzymatic process for producing 3-butenal and 3-buten-1-ol” (LANXESS Deutschland GmbH, priority 2014, dated 2016)
